Measured values taken from US20240261249A1, “NOVEL SQUARAMIDE DERIVATIVE AND USE THEREOF” (PUSAN NATIONAL UNIVERSITY INDUSTRY-UNIVERSITY COOPERATION …, priority 2021, published 2024).
Where two headings read alike, the source gives them in different places.

Experiments:
Format in all cases: cell-based
K562 cell line = assay: CCK-8 anti-proliferative assay, K562; settings: Homo sapiens, 72 h, K562, culture for 3 days
Experimental: CCK-8 assay (cell counting kit-8 assay, Dojindo, Kumamoto, Japan) was performed. The K562 cell line was cultured in RPMI medium supplemented with 10% FBS and 1% ABAM at 37° C. in the presence of 5% CO2. Cells were treated with test compounds at concentrations of 0 μM, 1.25 μM, 2.5 μM, 5 μM, 10 μM, and 20 μM, respectively. After culture for 3 days, 10 μL of CCK-8 solution was treated and cultured for 4 hours. Subsequently, the absorbance was measured at 450 nm to obtain the IC50 value of each compound.
The experimental values for the K562 cell line are identical to biological Example 2.

Phospho-eIF2α (Ser51) = Phospho-eIF2α (Ser51) Sandwich ELISA in K562 cells; settings: Homo sapiens, K562, 6 h, serum-free RPMI, 10 μM compound, control = 1, read-out: eIF2α phosphorylation, absorbance standardized to control (DMSO-treated) set to 1, at 10 μM
Method in brief: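 K562 cells in serum-free RPMI (37 °C, 5% CO2) were exposed to compounds at 10 μM for 6 h, then lysed, and 50 μg protein was run in the sandwich ELISA. Absorbance was normalised to the DMSO control set to 1.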

[1] = system: PBMC (peripheral blood monocyte cells isolated from normal donors); assay: CCK-8 assay, PBMC (normal cells); settings: for IC50: 72 h, PBMC normal cells, culture for 3 days, CCK-8, tested 0-20 μM; for SI (selectivity index): K562 cells compared to PBMC
Experimental: PBMC (peripheral blood monocyte cells isolated from normal donors) cell lines were dispensed in RPMI medium supplemented with 10% FBS and 1% ABAM at 37° C. in the presence of 5% CO2, and then the test compounds were treated at concentrations of 0 μM, 1.25 μM, 2.5 μM, 5 μM, 10 μM, and 20 μM, respectively. After culture for 3 days, 10 μL of CCK-8 solution was treated and cultured for 4 hours. Subsequently, the absorbance at 450 nm was measured to obtain the IC50 value of each compound.

[2] = CCK-8, Table 3 (identical to Example 2), tested 0-20 μM, read-out: IC50 K562

| IC50 (K562 cell line; CCK-8, Table 2, read-out: IC50) [µM] | IC50 (K562 cell line; [2]) [µM] | Structure (SMILES) | activity at 10 µM (Phospho-eIF2α (Ser51)) [%] | IC50 [1] [µM] | SI (selectivity index) [1] |
| --- | --- | --- | --- | --- | --- |
| 3.96 | 3.96 | O=c1c(Nc2cccc(C(F)(F)F)c2)c(N[C@H]2CC[C@H](Oc3ccc(C(F)(F)F)cc3)CC2)c1=O [Compound 23, 3-(((1,4-trans)-4-(4-(Trifluoromethyl)phenoxy)cyclohexyl)amino)-4-((3-(trifluoromethyl)phenyl)amino)cyclobut-3-ene-1,2-dione] | 201 | 10.8 | 2.77 |
| 10.1 | 10.1 | N#Cc1ccc(O[C@H]2CC[C@H](Nc3c(Nc4cc(C#N)cc(C(F)(F)F)c4)c(=O)c3=O)CC2)cc1 [Compound 84, 3-((2-(((1,4-trans)-4-(4-Cyanophenoxy)cyclohexyl)amino)-3,4-dioxocyclobut-1-en-1-yl)amino)-5-(trifluoromethyl)benzonitrile] | 143 | 29.4 | 2.26 |
| 4 | 4 | N#Cc1cc(Nc2c(N[C@H]3CC[C@H](Oc4ccc(C(F)(F)F)cc4)CC3)c(=O)c2=O)cc(C(F)(F)F)c1 [Compound 83, 3-((3,4-Dioxo-2-(((1,4-trans)-4-(4-(trifluoromethyl)phenoxy)cyclohexyl)amino)cyclobut-1-en-1-yl)amino)-5-(trifluoromethyl)benzonitrile] | 184 | 19.3 | 4.46 |
| 5.09 | 5.09 | CC(C)(C)c1cccc(Nc2c(N[C@H]3CC[C@H](Oc4ccc([N+](=O)[O-])cc4)CC3)c(=O)c2=O)c1 [Compound 30, 3-((3-(tert-Butyl)phenyl)amino)-4-(((1,4-trans)-4-(4-nitrophenoxy)cyclohexyl)amino)cyclobut-3-ene-1,2-dione] | 112 | 12.8 | 2.61 |
| 5.94 | 5.94 | N#Cc1ccc(O[C@H]2CC[C@H](Nc3c(Nc4cccc(C(F)(F)F)c4)c(=O)c3=O)CC2)cc1 [Compound 24, 4-(((1,4-trans)-4-((3,4-Dioxo-2-((3-(trifluoromethyl)phenyl)amino)cyclobut-1-en-1-yl)amino)cyclohexyl)oxy)benzonitrile] | 195 | 22.5 | 3.82 |
| 16.1 | 16.1 | O=c1c(Nc2cccc(Cl)c2)c(N[C@H]2CC[C@H](Oc3ccc([N+](=O)[O-])cc3)CC2)c1=O [Compound 20, 3-((3-Chlorophenyl)amino)-4-(((1,4-trans)-4-(4-nitrophenoxy)cyclohexyl)amino)cyclobut-3-ene-1,2-dione] | 190 | 20 | 1.40 |
| 14.2 | 14.2 | CS(=O)(=O)c1ccc(O[C@H]2CC[C@H](Nc3c(Nc4cc(C#N)cc(C(F)(F)F)c4)c(=O)c3=O)CC2)cc1 [Compound 86, 3-((2-(((1,4-trans)-4-(4-(Methylsulfonyl)phenoxy)cyclohexyl)amino)-3,4-dioxocyclobut-1-en-1-yl)amino)-5-(trifluoromethyl)benzonitrile] | 168 | 21 | 1.31 |
